Measured values published in ChEMBL document CHEMBL1201862, “PubChem BioAssay data set” (2004).
One block for each compound: values may come before it. Activity calls are given as the source filed them.

How the values were obtained:
NS3 = NS3 (Hepatitis C virus, UniProt A3EZJ3); experiment: PubChem AID 2173; set-up: species or system Hepacivirus hominis
[1] = target: Lysosomal acid glucosylceramidase (Homo sapiens, UniProt P04062); experiment: Dose response cell-based high throughput screening assay to identify enhancers of beta-glucosidase activity. [Related pubchem assays: 784 ]; format: functional
Chain of Lysosomal acid glucosylceramidase (P04062 whole entry): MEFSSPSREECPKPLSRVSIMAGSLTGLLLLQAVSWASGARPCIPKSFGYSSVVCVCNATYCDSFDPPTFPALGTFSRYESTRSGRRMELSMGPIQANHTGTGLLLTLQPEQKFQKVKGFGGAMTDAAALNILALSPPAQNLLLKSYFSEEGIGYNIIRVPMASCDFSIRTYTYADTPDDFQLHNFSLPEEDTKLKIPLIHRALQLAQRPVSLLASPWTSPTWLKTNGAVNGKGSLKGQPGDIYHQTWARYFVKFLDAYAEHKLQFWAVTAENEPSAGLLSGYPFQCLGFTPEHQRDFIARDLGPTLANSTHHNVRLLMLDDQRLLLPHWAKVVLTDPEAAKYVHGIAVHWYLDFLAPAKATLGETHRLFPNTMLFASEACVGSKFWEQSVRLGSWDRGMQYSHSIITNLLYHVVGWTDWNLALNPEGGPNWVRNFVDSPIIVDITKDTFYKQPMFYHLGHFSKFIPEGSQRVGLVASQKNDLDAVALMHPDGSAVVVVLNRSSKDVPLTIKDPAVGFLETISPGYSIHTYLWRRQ

X-box-binding protein 1 = X-box-binding protein 1 (Homo sapiens, UniProt P17861); format: functional, Cricetulus griseus;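 also: confirmatory dose-response counter-screen serving a CHOP assay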
Chain of X-box-binding protein 1 (P17861 whole entry): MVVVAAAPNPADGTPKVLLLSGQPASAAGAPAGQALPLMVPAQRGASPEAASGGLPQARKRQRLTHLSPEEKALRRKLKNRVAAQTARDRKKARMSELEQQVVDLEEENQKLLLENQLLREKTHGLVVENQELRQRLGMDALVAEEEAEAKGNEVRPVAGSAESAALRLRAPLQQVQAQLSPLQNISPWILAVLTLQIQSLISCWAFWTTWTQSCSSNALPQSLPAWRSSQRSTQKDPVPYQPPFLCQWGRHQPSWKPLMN

[2] = cytotoxicity in HEK-293T cells, dose response, cytotoxicity control for TCR NF-kB inhibitor project, luminescence, T-cell screen hits (AID 489026); format: functional, cell-based;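 also: cells exposed to compound about 14 hours before the viability readout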
J774.A1 = experiment: Confirmation of image-based Screening Assay for Inhibitors of Phagocytosis. [Related pubchem assays (depositor defined):AID1029, AID1643]; format: functional, cell-based; settings: Mus musculus
[3] = target: Peroxisome proliferator-activated receptor gamma/Nuclear receptor coactivator 3 (Homo sapiens, UniProt P37231); format: functional;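 also: agonist potency for raising coactivator recruitment to the receptor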
Chain of Peroxisome proliferator-activated receptor gamma/Nuclear receptor coactivator 3 (P37231 whole entry): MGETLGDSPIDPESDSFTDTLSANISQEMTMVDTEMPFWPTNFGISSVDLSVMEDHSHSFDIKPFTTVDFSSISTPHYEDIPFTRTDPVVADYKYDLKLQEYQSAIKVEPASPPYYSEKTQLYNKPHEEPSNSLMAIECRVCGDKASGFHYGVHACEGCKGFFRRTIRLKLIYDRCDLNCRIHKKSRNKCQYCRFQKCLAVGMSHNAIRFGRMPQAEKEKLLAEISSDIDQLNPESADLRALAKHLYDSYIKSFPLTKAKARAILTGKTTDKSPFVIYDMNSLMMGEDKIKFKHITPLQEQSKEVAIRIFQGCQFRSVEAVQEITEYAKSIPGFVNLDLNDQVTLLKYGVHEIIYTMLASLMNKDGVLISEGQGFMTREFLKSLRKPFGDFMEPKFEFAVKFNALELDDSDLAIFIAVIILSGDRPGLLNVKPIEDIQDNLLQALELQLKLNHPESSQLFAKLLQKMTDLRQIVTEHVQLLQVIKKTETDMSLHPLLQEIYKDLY
Chain of Peroxisome proliferator-activated receptor gamma/Nuclear receptor coactivator 3 (Q9Y6Q9 whole entry, further chain): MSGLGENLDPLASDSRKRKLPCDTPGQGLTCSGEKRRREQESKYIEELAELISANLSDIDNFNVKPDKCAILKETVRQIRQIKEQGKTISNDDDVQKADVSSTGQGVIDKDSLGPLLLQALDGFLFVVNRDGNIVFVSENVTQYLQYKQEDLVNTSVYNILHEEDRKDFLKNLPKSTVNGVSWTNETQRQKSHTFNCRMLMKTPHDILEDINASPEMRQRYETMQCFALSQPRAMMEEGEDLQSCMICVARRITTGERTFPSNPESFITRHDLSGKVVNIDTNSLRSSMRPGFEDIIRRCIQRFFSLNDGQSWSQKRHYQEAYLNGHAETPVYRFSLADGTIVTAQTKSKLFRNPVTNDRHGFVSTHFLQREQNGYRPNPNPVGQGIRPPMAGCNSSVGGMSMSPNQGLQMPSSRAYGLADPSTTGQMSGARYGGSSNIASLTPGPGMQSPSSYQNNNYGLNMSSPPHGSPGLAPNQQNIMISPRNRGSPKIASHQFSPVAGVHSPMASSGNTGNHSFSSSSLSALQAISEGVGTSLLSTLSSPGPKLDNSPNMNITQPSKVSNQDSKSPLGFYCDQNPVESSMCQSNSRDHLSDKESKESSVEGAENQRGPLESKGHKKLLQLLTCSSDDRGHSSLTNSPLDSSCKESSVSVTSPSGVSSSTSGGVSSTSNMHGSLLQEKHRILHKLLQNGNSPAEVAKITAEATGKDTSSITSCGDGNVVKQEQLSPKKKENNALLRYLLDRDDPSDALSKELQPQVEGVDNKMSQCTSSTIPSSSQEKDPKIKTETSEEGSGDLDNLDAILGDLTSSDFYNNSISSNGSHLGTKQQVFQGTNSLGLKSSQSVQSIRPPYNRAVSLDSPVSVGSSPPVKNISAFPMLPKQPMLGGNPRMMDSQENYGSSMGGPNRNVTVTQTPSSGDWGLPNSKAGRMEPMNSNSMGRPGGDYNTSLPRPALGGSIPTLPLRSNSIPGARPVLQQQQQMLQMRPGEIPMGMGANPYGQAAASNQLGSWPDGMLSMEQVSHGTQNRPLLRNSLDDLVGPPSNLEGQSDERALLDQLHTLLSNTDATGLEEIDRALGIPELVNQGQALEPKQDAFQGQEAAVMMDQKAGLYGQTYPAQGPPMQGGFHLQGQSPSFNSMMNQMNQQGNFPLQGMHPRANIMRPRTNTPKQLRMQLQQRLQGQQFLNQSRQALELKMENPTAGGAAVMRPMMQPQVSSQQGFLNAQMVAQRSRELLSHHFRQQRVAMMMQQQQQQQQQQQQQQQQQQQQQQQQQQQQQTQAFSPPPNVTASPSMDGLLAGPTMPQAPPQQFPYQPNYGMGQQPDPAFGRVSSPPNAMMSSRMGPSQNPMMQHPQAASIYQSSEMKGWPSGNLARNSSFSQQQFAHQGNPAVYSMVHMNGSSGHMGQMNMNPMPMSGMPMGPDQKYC

[4] = target: Peroxisome proliferator-activated receptor gamma/Nuclear receptor coactivator 2 (Homo sapiens, UniProt P37231); format: functional;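 also: agonist potency for raising coactivator recruitment to the receptor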
[5] = target: Peroxisome proliferator-activated receptor gamma/Nuclear receptor coactivator 1 (Homo sapiens, UniProt P37231); format: functional;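 also: agonist potency as compounds enhance coactivator SRC-1 recruitment to PPARgamma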

Chain of NS3 (A3EZJ3 whole entry): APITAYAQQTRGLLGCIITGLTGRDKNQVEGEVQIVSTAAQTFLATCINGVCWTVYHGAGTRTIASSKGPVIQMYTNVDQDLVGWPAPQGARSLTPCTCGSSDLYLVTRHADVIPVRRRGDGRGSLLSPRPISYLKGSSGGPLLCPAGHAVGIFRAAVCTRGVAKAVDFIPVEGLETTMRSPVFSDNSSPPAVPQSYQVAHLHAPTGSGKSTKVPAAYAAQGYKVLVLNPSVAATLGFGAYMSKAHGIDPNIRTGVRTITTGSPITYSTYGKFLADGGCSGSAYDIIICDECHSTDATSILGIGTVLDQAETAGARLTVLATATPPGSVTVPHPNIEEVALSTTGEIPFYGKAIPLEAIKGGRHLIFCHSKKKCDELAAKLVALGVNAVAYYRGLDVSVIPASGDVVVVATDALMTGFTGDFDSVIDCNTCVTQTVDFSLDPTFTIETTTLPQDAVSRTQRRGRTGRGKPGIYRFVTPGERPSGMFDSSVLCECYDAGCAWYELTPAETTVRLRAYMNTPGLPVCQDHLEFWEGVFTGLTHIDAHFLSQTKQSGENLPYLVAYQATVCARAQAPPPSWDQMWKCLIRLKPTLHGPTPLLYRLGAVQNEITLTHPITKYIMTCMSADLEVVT

SMILES: CC(OC(=O)c1nsc(Cl)c1Cl)C(=O)NCc1cccs1 (stereo not drawn)
EC50 [1]: > 50 µM (not active)

SMILES: CC(C)Oc1ccccc1C1CC(=O)Nc2cc3c(cc21)OCO3 (stereo not drawn)
IC50 [2]: > 80 µM (inactive)
IC50 (J774.A1): > 25 µM (inactive)

Results, then the compound that gave them:

IC50 (NS3): > 109 µM (not active)
SMILES: Cc1cc2cc(C(c3nnnn3Cc3ccco3)N3CCc4ccccc4C3)c(O)nc2cc1C (stereo not drawn)

Absolute IC50 (XBP1) (X-box-binding protein 1): 10 µM
SMILES: CCC(C)Sc1nc2c(c(=O)[nH]c(=O)n2C)n1Cc1ccc(Cl)cc1 (stereo not drawn)

EC50 [3]: > 79.4 µM (not active)
EC50 [4]: > 79.4 µM (not active)
EC50 [5]: > 79.4 µM (not active)
SMILES: CCOC(=O)c1c(NC(=O)CSc2nc(C)cc(C)c2C#N)sc(C(C)=O)c1C
